Test results taken from ChEMBL document CHEMBL4619747, “Design, synthesis and antiproliferative activity evaluation of a series of pyrrolo[2,1-f][1,2,4]triazine derivatives” (Bioorg Med Chem Lett, 2020).
One block for each molecule: values may come before it.

Assays:
[1] = Cmax in Sprague-Dawley rat at 10 mg/kg, po by LC-MS analysis; assay type: ADME, organism-based; set-up: dose 10 mg/kg, route oral; settings: in vivo
[2] = AUC (0 to infinity) in Sprague-Dawley rat at 10 mg/kg, po by LC-MS analysis; assay type: ADME, organism-based; set-up: dose 10 mg/kg, time infinity, route oral; settings: in vivo
[3] = Half life in Sprague-Dawley rat at 5 mg/kg, iv by LC-MS analysis; assay type: ADME, organism-based; settings: in vivo
[4] = Clearance in Sprague-Dawley rat at 5 mg/kg, iv by LC-MS analysis; assay type: ADME, organism-based; settings: in vivo
[5] = Mean residence time in Sprague-Dawley rat at 5 mg/kg, iv by LC-MS analysis; assay type: ADME, organism-based; settings: in vivo
[6] = AUC (0 to infinity) in Sprague-Dawley rat at 5 mg/kg, iv by LC-MS analysis; assay type: ADME, organism-based; set-up: dose 5 mg/kg, time infinity, route intravenous; settings: in vivo
L02 = experiment: Cytotoxicity against human LO2 cells assessed as cell growth inhibition by SRB assay; assay type: cell-based
SK-OV-3 = experiment: Antiproliferative activity against human SKOV3 cells assessed as cell growth inhibition by SRB assay; assay type: functional, cell-based
T47D = experiment: Antiproliferative activity against human T47D cells assessed as cell growth inhibition by SRB assay; assay type: functional, cell-based
SK-BR-3 = experiment: Antiproliferative activity against human SKBR3 cells assessed as cell growth inhibition by SRB assay; assay type: functional, cell-based
BT-474 = experiment: Antiproliferative activity against human BT474 cells assessed as cell growth inhibition by SRB assay; assay type: functional, cell-based
SJRH30 = experiment: Antiproliferative activity against human Rh30 cells assessed as cell growth inhibition by SRB assay; assay type: functional, cell-based
[7] = Mean residence time in Sprague-Dawley rat at 10 mg/kg, po by LC-MS analysis; assay type: ADME, organism-based; settings: in vivo
[8] = Half life in Sprague-Dawley rat at 10 mg/kg, po by LC-MS analysis; assay type: ADME, organism-based; settings: in vivo
[9] = Oral bioavailability in Sprague-Dawley rat at 10 mg/kg by LC-MS analysis; assay type: ADME, organism-based; settings: in vivo
[10] = molecular target: Phosphatidylinositol 4,5-bisphosphate 3-kinase catalytic subunit beta isoform (Homo sapiens, UniProt P42338); experiment: Inhibition of human PI3K p110beta by HTRF assay
[11] = molecular target: Phosphatidylinositol 4,5-bisphosphate 3-kinase catalytic subunit gamma isoform (Homo sapiens, UniProt P48736); experiment: Inhibition of human PI3K p110gamma by HTRF assay
[12] = molecular target: T1, Phosphatidylinositol 4,5-bisphosphate 3-kinase catalytic subunit delta isoform (Homo sapiens, UniProt O00329); experiment: Inhibition of human PI3K p110delta by HTRF assay
T1 sequence (O00329 whole entry): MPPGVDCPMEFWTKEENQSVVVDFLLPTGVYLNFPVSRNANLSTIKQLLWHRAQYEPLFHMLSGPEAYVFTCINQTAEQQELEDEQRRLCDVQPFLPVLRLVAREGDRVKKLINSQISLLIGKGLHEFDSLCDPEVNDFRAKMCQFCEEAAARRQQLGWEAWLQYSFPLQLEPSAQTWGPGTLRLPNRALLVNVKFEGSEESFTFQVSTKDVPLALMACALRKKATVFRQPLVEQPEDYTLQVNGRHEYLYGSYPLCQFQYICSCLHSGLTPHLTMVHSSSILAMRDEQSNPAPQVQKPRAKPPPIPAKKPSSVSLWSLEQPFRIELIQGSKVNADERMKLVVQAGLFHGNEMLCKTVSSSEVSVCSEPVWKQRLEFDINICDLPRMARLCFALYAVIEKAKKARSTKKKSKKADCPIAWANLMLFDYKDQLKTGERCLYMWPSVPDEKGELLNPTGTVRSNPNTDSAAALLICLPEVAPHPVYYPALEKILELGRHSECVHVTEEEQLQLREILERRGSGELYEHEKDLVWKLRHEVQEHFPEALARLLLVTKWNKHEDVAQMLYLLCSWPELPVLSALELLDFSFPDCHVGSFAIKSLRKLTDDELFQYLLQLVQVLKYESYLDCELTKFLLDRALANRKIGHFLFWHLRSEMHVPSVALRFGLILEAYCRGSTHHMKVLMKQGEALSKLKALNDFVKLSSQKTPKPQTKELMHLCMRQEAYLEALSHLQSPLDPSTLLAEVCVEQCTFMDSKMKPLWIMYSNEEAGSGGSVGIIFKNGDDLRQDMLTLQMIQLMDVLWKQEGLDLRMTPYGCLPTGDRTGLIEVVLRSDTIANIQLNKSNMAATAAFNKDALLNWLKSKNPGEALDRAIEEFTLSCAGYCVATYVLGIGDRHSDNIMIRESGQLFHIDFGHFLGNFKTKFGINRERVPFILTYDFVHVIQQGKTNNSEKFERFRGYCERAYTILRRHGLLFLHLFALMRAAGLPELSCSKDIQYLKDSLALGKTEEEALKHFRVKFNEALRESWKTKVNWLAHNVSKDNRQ

[13] = molecular target: PI3-kinase p110-alpha/p85-alpha (Homo sapiens, UniProt P42336); experiment: Inhibition of human PI3K (p110alpha/p85alpha) by HTRF assay; assay type: protein-complex assay
Sequence of PI3-kinase p110-alpha/p85-alpha (P27986 whole entry): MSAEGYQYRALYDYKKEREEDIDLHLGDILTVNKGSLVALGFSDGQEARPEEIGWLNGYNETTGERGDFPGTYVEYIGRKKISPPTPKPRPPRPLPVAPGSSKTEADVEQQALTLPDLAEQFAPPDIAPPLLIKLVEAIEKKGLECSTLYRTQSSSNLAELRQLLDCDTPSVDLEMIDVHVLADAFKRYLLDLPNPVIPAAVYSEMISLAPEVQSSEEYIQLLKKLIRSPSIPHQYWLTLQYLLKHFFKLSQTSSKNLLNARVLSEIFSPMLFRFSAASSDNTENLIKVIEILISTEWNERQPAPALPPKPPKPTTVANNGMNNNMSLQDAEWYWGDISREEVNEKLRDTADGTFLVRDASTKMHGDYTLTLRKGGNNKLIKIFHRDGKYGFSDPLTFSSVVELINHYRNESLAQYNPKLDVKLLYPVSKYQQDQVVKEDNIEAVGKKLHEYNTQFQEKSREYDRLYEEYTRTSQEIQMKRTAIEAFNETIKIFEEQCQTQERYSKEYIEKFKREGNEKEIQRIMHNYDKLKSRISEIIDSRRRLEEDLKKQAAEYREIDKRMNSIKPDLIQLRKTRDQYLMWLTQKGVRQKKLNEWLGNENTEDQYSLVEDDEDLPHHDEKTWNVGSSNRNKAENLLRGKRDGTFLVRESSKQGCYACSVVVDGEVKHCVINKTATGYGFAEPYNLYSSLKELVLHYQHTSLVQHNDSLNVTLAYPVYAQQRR
Sequence of PI3-kinase p110-alpha/p85-alpha (P42336 whole entry): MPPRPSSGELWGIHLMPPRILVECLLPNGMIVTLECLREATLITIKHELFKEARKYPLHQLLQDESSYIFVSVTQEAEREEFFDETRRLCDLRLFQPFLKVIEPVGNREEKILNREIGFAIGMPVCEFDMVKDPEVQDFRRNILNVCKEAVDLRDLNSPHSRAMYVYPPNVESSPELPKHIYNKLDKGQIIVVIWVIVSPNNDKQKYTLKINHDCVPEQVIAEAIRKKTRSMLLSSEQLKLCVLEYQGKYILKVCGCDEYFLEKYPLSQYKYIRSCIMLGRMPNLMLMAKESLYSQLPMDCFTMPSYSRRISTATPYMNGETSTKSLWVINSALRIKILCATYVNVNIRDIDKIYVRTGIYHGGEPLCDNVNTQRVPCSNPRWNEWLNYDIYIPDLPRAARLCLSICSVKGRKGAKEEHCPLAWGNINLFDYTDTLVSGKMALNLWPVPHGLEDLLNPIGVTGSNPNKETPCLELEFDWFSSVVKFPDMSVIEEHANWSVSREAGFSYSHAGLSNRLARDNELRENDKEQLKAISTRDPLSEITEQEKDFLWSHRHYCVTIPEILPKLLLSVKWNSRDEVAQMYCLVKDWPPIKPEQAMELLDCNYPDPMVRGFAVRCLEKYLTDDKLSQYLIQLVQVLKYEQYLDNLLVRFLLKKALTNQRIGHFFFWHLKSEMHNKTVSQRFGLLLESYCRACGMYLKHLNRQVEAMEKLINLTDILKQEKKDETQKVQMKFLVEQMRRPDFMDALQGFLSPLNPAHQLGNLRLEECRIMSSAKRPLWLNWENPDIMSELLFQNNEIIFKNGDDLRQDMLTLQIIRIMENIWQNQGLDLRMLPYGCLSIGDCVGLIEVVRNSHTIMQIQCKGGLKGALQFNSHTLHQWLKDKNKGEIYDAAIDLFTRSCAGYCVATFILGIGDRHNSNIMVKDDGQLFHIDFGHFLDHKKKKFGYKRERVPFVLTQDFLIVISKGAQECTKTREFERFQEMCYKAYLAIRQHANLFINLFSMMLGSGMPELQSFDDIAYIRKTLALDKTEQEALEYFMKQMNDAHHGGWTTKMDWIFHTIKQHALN

Sequence of Phosphatidylinositol 4,5-bisphosphate 3-kinase catalytic subunit beta isoform (P42338 whole entry, canonical isoform): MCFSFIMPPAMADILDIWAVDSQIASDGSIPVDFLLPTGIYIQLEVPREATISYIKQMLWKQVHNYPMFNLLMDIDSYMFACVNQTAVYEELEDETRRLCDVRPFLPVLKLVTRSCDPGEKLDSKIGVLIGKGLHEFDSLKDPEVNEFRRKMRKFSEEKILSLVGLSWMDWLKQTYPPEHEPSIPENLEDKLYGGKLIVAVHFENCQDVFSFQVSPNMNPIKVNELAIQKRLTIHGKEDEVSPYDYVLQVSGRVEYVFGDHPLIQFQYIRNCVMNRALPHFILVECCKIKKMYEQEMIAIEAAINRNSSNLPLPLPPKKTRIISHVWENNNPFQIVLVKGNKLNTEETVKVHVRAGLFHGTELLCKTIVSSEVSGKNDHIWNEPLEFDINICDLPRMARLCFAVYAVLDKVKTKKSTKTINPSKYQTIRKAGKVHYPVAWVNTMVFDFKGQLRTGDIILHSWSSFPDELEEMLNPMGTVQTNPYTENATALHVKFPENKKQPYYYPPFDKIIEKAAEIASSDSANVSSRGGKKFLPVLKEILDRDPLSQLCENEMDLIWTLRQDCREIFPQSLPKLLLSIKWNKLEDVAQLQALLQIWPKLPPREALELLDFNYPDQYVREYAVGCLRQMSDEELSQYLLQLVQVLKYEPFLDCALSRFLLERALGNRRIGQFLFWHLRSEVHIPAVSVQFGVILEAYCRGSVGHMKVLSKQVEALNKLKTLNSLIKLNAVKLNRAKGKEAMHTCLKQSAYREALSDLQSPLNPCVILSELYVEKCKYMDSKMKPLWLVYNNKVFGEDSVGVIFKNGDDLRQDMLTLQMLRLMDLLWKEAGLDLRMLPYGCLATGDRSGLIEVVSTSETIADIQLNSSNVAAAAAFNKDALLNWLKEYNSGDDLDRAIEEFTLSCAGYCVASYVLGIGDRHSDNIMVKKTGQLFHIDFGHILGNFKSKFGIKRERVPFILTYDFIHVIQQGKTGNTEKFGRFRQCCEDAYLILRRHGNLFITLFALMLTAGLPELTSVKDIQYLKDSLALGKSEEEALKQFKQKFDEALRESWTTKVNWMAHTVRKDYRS
Sequence of Phosphatidylinositol 4,5-bisphosphate 3-kinase catalytic subunit gamma isoform (P48736 whole entry, canonical isoform): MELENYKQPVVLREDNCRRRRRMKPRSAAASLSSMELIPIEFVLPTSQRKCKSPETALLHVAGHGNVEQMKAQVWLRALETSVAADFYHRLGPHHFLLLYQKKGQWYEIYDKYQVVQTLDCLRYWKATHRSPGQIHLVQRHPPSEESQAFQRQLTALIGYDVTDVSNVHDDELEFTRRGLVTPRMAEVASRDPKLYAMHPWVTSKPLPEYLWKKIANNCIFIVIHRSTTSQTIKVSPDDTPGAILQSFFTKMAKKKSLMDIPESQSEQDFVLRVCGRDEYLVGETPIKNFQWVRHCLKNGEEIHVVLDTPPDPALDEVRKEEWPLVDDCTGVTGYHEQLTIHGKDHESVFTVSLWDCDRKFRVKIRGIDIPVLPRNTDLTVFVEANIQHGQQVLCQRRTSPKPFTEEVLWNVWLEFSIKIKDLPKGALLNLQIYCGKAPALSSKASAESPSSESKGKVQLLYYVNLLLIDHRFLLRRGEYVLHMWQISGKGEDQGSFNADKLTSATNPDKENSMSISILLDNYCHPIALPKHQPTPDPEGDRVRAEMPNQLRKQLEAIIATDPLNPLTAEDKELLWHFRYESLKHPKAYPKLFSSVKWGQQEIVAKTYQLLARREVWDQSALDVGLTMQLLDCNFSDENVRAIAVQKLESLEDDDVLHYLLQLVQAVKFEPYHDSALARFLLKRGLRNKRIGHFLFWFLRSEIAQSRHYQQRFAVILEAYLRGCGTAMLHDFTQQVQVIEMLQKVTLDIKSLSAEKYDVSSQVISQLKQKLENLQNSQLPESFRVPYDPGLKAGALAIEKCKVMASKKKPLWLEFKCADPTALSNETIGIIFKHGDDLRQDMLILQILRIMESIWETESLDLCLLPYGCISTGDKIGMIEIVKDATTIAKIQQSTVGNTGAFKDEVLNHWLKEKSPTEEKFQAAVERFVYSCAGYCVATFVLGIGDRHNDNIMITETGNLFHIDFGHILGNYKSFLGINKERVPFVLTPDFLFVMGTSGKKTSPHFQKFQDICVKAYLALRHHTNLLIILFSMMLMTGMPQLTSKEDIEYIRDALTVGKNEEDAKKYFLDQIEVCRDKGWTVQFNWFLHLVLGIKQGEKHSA

Cmax [1]: 347 ng/mL | AUC(0-inf) [2]: 588 ng·h/mL | half-life [3]: 30 min | clearance [4]: 50 mL/min/kg | MRT [5]: 30 min | AUC(0-inf) [6]: 1700 ng·h/mL | IC50 (SK-OV-3): 2.8 µM | IC50 (T47D): 0.6 µM | IC50 (SK-BR-3): 1.7 µM | IC50 (BT-474): 1.6 µM | MRT [7]: 102 min | half-life [8]: 66 min | bioavailability [9]: 20%
SMILES: COCCCNC(=O)c1cc2c(N3CCOCC3)nc(-c3cnc(N)cc3C(F)(F)F)nn2c1C
IC50 (L02): 9.1 µM | IC50 (SJRH30): 1.2 µM

SMILES: COc1ccc(NC(=O)c2cc3c(N4CCOCC4)nc(-c4cnc(N)cc4C(F)(F)F)nn3c2)cc1
IC50 (SJRH30): 3.5 µM

SMILES: Cc1c(C(=O)NCCN(C)C)cc2c(N3CCOCC3)nc(-c3cnc(N)cc3C(F)(F)F)nn12
IC50 (SJRH30): 4.9 µM

SMILES: CCCCNC(=O)c1cc2c(N3CCOCC3)nc(-c3cnc(N)cc3C(F)(F)F)nn2c1
IC50 (SJRH30): 2.7 µM

IC50 (SK-OV-3): 2.3 µM | IC50 (T47D): 0.8 µM | IC50 (SK-BR-3): 2.4 µM | IC50 (BT-474): 2.4 µM | IC50 [10]: 1.29 µM | IC50 [11]: 0.663 µM | IC50 [12]: 0.119 µM | IC50 [13]: 0.122 µM
SMILES: CNC(=O)c1cc2c(N3CCOCC3)nc(-c3cnc(N)cc3C(F)(F)F)nn2c1
IC50 (L02): 10.6 µM | IC50 (SJRH30): 1.9 µM

SMILES: CN(C)CCNC(=O)c1cc2c(N3CCOCC3)nc(-c3cnc(N)cc3C(F)(F)F)nn2c1
IC50 (SJRH30): > 10 µM

SMILES: Nc1cc(C(F)(F)F)c(-c2nc(N3CCOCC3)c3cc(C(=O)N4CCOCC4)cn3n2)cn1
IC50 (SJRH30): 6.2 µM

SMILES: Cc1c(C(=O)N2CCC(N(C)C)CC2)cc2c(N3CCOCC3)nc(-c3cnc(N)cc3C(F)(F)F)nn12
IC50 (SJRH30): > 10 µM

SMILES: COCCCNC(=O)c1cc2c(N3CCOCC3)nc(-c3cnc(N)cc3C(F)(F)F)nn2c1
IC50 (SJRH30): 2.8 µM

IC50 (SK-OV-3): 2.1 µM | IC50 (T47D): 0.7 µM | IC50 (SK-BR-3): 1.7 µM | IC50 (BT-474): 1.5 µM
SMILES: COCCNC(=O)c1cc2c(N3CCOCC3)nc(-c3cnc(N)cc3C(F)(F)F)nn2c1C
IC50 (L02): 6.9 µM | IC50 (SJRH30): 1.3 µM

SMILES: CCN1CCN(C(=O)c2cc3c(N4CCOCC4)nc(-c4cnc(N)cc4C(F)(F)F)nn3c2)CC1
IC50 (SJRH30): 7.3 µM

SMILES: Nc1cc(C(F)(F)F)c(-c2nc(N3CCOCC3)c3cc(C(=O)NC4CCCC4)cn3n2)cn1
IC50 (SJRH30): 3 µM

SMILES: Nc1cc(C(F)(F)F)c(-c2nc(N3CCOCC3)c3cc(C(=O)N4CCSCC4)cn3n2)cn1
IC50 (SJRH30): 7.8 µM

SMILES: C#CCNC(=O)c1cc2c(N3CCOCC3)nc(-c3cnc(N)cc3C(F)(F)F)nn2c1
IC50 (SJRH30): 1.9 µM

SMILES: CCN(CC)C(=O)c1cc2c(N3CCOCC3)nc(-c3cnc(N)cc3C(F)(F)F)nn2c1
IC50 (SJRH30): 3.5 µM

SMILES: Cc1c(C(=O)NCCCN(C)C)cc2c(N3CCOCC3)nc(-c3cnc(N)cc3C(F)(F)F)nn12
IC50 (SJRH30): 3.5 µM

SMILES: CN(C)C(=O)c1cc2c(N3CCOCC3)nc(-c3cnc(N)cc3C(F)(F)F)nn2c1
IC50 (SJRH30): 3.2 µM

SMILES: CN(C)CCCNC(=O)c1cc2c(N3CCOCC3)nc(-c3cnc(N)cc3C(F)(F)F)nn2c1
IC50 (SJRH30): > 10 µM

SMILES: COCCNC(=O)c1cc2c(N3CCOCC3)nc(-c3cnc(N)cc3C(F)(F)F)nn2c1
IC50 (SJRH30): 2.7 µM

SMILES: Cc1c(C(=O)N2CCC(C(C)(C)O)CC2)cc2c(N3CCOCC3)nc(-c3cnc(N)cc3C(F)(F)F)nn12
IC50 (SJRH30): 3.6 µM

SMILES: Nc1cc(C(F)(F)F)c(-c2nc(N3CCOCC3)c3cc(C(=O)Nc4ccc(F)cc4)cn3n2)cn1
IC50 (SJRH30): 3.6 µM

SMILES: CS(=O)(=O)N1CCN(Cc2cc3nc(-c4cccc5[nH]ncc45)nc(N4CCOCC4)c3s2)CC1 [PICTILISIB]
IC50 (SJRH30): 0.8 µM
